This note sets out measurements from ChEMBL document CHEMBL5360547 (Eur J Med Chem, 2023).

The subject of data set [1] is Cortical neurone. The data set is described as follows: Neuroprotective activity against oxygen glucose deprivation induced ischemic stroke model in primary C57BL/6J E14-17 mouse Cortical neurons assessed as increase in cell viability at 0.5 to 20 uM incubated for 24 hrs by CCK-8 assay. Conditions: dose 0.5-20 µM. Type of data set: functional, cell-based. (In general: Formazan colour is commonly taken as a measure of viable cells.)

Data set [2] has as its system Cortical neurone. As to the kind of experiment: Cytotoxicity against primary C57BL/6J E14-17 mouse Cortical neuron assessed as decrease in cell viability upto 50 uM incubated for 24 hrs by CCK-8 assay. Type of data set: toxicity, cell-based.
In data set [3] the test system is Cortical neurone. The data set is described as follows: Neuroprotective activity against oxygen glucose deprivation induced ischemic stroke model in primary C57BL/6J E14-17 mouse Cortical neurons assessed as increase in cell viability at 1 uM incubated for 24 hrs by CCK-8 assay (Rvb= 57.43 +/- 2.54 %). The data set is classed as functional.
The test system of data set [4] is Cortical neurone. As to the kind of experiment: Cytotoxicity against primary C57BL/6J E14-17 mouse Cortical neuron assessed as decrease in cell viability at 1 uM incubated for 24 hrs by CCK-8 assay relative to control. Type of data set: toxicity, cell-based.
The subject of data set [5] is Cortical neurone. As to the kind of experiment: Cytotoxicity against primary C57BL/6J E14-17 mouse Cortical neuron assessed as decrease in cell viability at 10 uM incubated for 24 hrs by CCK-8 assay relative to control. Type of data set: toxicity, cell-based.
In data set [6] the test system is Cortical neurone. The data set is described as follows: Neuroprotective activity against oxygen glucose deprivation induced ischemic stroke model in primary C57BL/6J E14-17 mouse Cortical neurons assessed as increase in cell viability at 10 uM incubated for 24 hrs by CCK-8 assay (Rvb= 57.43 +/- 2.54 %). The data set is classed as functional.

Molecules are shown by their SMILES. Calls of active or inactive are those of the source. The rule behind the calls is not given here.

`CN(C)[C@H]1CC[C@@H](c2ccc(Cl)c(Cl)c2)c2ccccc21`: in data set [1], the result was Active. In addition, the Activity entry in data set [2] was “Non-Toxic”.
Turning to `Clc1ccc(CN[C@@H]2CC[C@@H](c3ccc(Cl)c(Cl)c3)c3ccccc32)cc1Cl`, the Activity in data set [3] worked out at 58.46%; in data set [4] it was 101.08%; in data set [5], 105.41%; in data set [6], 55.64%.
Taken in the same sequence, the figures for `CC(N[C@@H]1CC[C@@H](c2ccc(Cl)c(Cl)c2)c2ccccc21)c1ccccc1` (some centres not stated) were 45.67%, 98.48%, 45.32% and 51.75%.
Taken in the same sequence, the figures for `Clc1ccc([C@@H]2CC[C@@H](NCCN3CCNCC3)c3ccccc32)cc1Cl` were 56.76%, 90.76%, 31.8% and 28.28%.
Take `CN[C@H]1CC[C@@H](c2ccc(Cl)c(Cl)c2)c2ccccc21`: the outcome in data set [1] was Active.
As to `CN[C@@H]1CC[C@@H](c2ccc(Cl)c(Cl)c2)c2ccccc21` (racemic), the Activity in data set [3] is on record as 59.29%; in data set [4], 94.5%; in data set [5], 92.08%; in data set [6], 65.74%.
For `CCCCCCCCN(C)[C@@H]1CC[C@@H](c2ccc(Cl)c(Cl)c2)c2ccccc21` (racemic), in data set [1], the outcome was Active. Moreover, the Activity result in data set [2] is “Non-Toxic”.
In the case of `CCCCCCCCN(C)[C@H]1CC[C@@H](c2ccc(Cl)c(Cl)c2)c2ccccc21` (racemic), the result in data set [1] was Active.
On to `CN[C@H]1CC[C@@H](c2ccc(Cl)c(Cl)c2)c2ccccc21` (racemic) [SERTRALINE], for which the Activity in data set [3] (24 h, 1 µM) is 60.36%; in data set [4], 96.32%; in data set [5], 92.98%; in data set [6] (24 h, 10 µM) it was 45.76%.
Take `NCCN[C@@H]1CC[C@@H](c2ccc(Cl)c(Cl)c2)c2ccccc21` (relative stereo): the Activity in data set [3] came to 24.79%; in data set [4] it was 103.68%; in data set [5], 24.73%; in data set [6], 3.53%.
Consider `NCCCCCCN[C@@H]1CC[C@@H](c2ccc(Cl)c(Cl)c2)c2ccccc21` (relative stereo), for which the Activity in data set [4] is listed as 48.84%; in data set [5] it was 22.62%; in data set [6], 3.43%.
Turning to `Clc1ccc([C@@H]2CC[C@@H](NCc3ccc4c(c3)OCO4)c3ccccc32)cc1Cl` (relative stereo), the Activity amounted to 63.19% in data set [3], 104.95% in data set [4], 95.94% in data set [5] and 57.62% in data set [6].
Taken in the same sequence, the figures for `Clc1ccc([C@@H]2CC[C@@H](NCc3cccc4ccccc34)c3ccccc32)cc1Cl` (relative stereo) were 61.36%, 95.27%, 96.52% and 65.01%.
With `COc1ccc(CN[C@@H]2CC[C@@H](c3ccc(Cl)c(Cl)c3)c3ccccc32)cc1` (relative stereo), the Activity is given as 56.57% in data set [3], 98.78% in data set [4], 85.78% in data set [5] and 60.68% in data set [6].
Taken in the same sequence, the figures for `CC(C)(C)OC(=O)N1CCN(CCN[C@@H]2CC[C@@H](c3ccc(Cl)c(Cl)c3)c3ccccc32)CC1` (relative stereo) were 63.76%, 100.27%, 93.92% and 57.97%.
Taken in the same sequence, the figures for `CCCCN[C@@H]1CC[C@@H](c2ccc(Cl)c(Cl)c2)c2ccccc21` (relative stereo) were 54.27%, 95.75%, 94.94% and 50.99%.
Taken in the same sequence, the figures for `COc1cccc(CN[C@@H]2CC[C@@H](c3ccc(Cl)c(Cl)c3)c3ccccc32)c1` (relative stereo) were 51.08%, 95.52%, 97.09% and 47.87%.
Consider `NCCCCN[C@@H]1CC[C@@H](c2ccc(Cl)c(Cl)c2)c2ccccc21` (relative stereo), for which the Activity is reported as 33.3% in data set [3], 90.11% in data set [4], 22.9% in data set [5] and 3.07% in data set [6].
Taken in the same sequence, the figures for `Cc1ccc(CN[C@@H]2CC[C@@H](c3ccc(Cl)c(Cl)c3)c3ccccc32)cc1` (relative stereo) were 60.9%, 92.92%, 84.46% and 59.01%.
Taken in the same sequence, the figures for `FC(F)(F)c1cccc(CN[C@@H]2CC[C@@H](c3ccc(Cl)c(Cl)c3)c3ccccc32)c1` (relative stereo) were 65.74%, 90.68%, 85.87% and 59%.
Taken in the same sequence, the figures for `Clc1ccc([C@@H]2CC[C@@H](NCC3CCCCC3)c3ccccc32)cc1Cl` (relative stereo) were 64.56%, 100.42%, 103.51% and 62.02%.
Regarding `CCCCCC(C)N[C@@H]1CC[C@@H](c2ccc(Cl)c(Cl)c2)c2ccccc21` (relative stereo), the Activity in data set [3] is on record as 58.02%; in data set [4], 89.48%; in data set [5], 84.74%; in data set [6] it was 60.07%.
Take `O=C(Cc1ccccc1)N[C@@H]1CC[C@@H](c2ccc(Cl)c(Cl)c2)c2ccccc21` (relative stereo): the outcome in data set [1] was Active. The Activity entry in data set [2] is given as “Toxic”.
As for `CCCCCCN[C@@H]1CC[C@@H](c2ccc(Cl)c(Cl)c2)c2ccccc21` (relative stereo), the Activity is 62.38% in data set [3]; 98.87% in data set [4]; 113.14% in data set [5]; 81.04% in data set [6]; “Dose-Dependent Effect” in data set [1]; “Toxic” in data set [2].
Consider `C=CCC(=O)N[C@@H]1CC[C@@H](c2ccc(Cl)c(Cl)c2)c2ccccc21` (relative stereo), for which the outcome in data set [1] was Active. Also, the Activity entry in data set [2] is on record as “Toxic”.
As for `Clc1ccc([C@@H]2CC[C@@H](NCCCCc3ccccc3)c3ccccc32)cc1Cl` (relative stereo), the Activity in data set [3] was 57.11%; in data set [4], 98.28%; in data set [5], 94.37%; in data set [6], 58.59%.
Taken in the same sequence, the figures for `Clc1ccc([C@@H]2CC[C@@H](NC3CC3)c3ccccc32)cc1Cl` (relative stereo) were 62.49%, 100.03%, 109.93% and 66.66%.
Consider `CCCC(=O)N[C@@H]1CC[C@@H](c2ccc(Cl)c(Cl)c2)c2ccccc21` (relative stereo), for which, in data set [1], the outcome was Active. Moreover, in data set [2], the Activity result was “Toxic”.
Turning to `O=C(CCCCl)N[C@@H]1CC[C@@H](c2ccc(Cl)c(Cl)c2)c2ccccc21` (relative stereo), the Activity in data set [3] is given as 63.86%; in data set [4], 92.02%; in data set [5], 84.35%; in data set [6] it was 58.31%.
Taken in the same sequence, the figures for `CC(C)(C)c1ccc(CN[C@@H]2CC[C@@H](c3ccc(Cl)c(Cl)c3)c3ccccc32)cc1` (relative stereo) were 56.78%, 93.91%, 93.23% and 60.98%.
Taken in the same sequence, the figures for `CC(C)(C)OC(=O)NCCN[C@@H]1CC[C@@H](c2ccc(Cl)c(Cl)c2)c2ccccc21` (relative stereo) were 58.81%, 98.85%, 94.48% and 54.41%.
Taken in the same sequence, the figures for `Clc1ccc([C@@H]2CC[C@@H](NCCc3c[nH]c4ccccc34)c3ccccc32)cc1Cl` (relative stereo) were 52.97%, 104.13%, 96.14% and 59.42%.
As to `CC(C)CN[C@@H]1CC[C@@H](c2ccc(Cl)c(Cl)c2)c2ccccc21` (relative stereo), the Activity is on record as 56.47% in data set [3], 96.1% in data set [4], 73.99% in data set [5] and 30.22% in data set [6].
`Clc1ccc([C@@H]2CC[C@@H](N3CCCC3)c3ccccc32)cc1Cl` (relative stereo): the result in data set [1] was Active. In data set [2], the Activity entry is listed as “Toxic”.
With `CCCN[C@@H]1CC[C@@H](c2ccc(Cl)c(Cl)c2)c2ccccc21` (relative stereo), the Activity in data set [3] is on record as 62.89%; in data set [4] it was 96.43%; in data set [5] it was 100.55%; in data set [6] it was 55.53%.
Taken in the same sequence, the figures for `N[C@@H]1CC[C@@H](c2ccc(Cl)c(Cl)c2)c2ccccc21` (relative stereo) [DASOTRALINE] were 57.14%, 99.05%, 95.38% and 56.94%.
